Results as given in publication PMC12349723, “Computationally accelerated identification of P-glycoprotein inhibitors” (PLOS One, 2025).
Several values for one entry are separate records, joined by “and”; a condition that tells them apart may be missing. Identical values can stand only once. Like-named read-outs stand apart in the source and are kept apart here.

Key:
Assay type in all cases: cell-based, human
[1] = system: A2780-ADR cells; assay: MTT viability assay, reversal of MDR in P-gp overexpressing A2780-ADR cells; conditions: for Reversal of MDR in A2780-ADR cells: 15 µM compound with or without 500 nM PTX, 48 h, MTT; for Mean % Survival / % Survival (individual sample) / viability at 15 µM: A2780-ADR cells; for viability at 15 µM: Homo sapiens, A2780 ADR
Experimental: (§1) The chemotherapeutic sensitive DU145 human prostate cancer cells and the multidrug resistant sub-line, DU145-TXR, were generous gifts from Dr. Evan Keller (University of Michigan, Ann Arbor, MI). The MDR, P-gp overexpressing DU145-TXR cells were maintained under positive selection pressure by supplementing complete medium with 10 nM paclitaxel (Acros Organics, NJ). In addition to the aforementioned cell lines, the chemotherapeutic sensitive A2780 ovarian cancer cells (93112519, Sigma) and the multidrug resistant A2780-ADR (93112520, Sigma) were maintained in complete RPMI media consisting of RPMI-1640 with L-glutamine, 10% fetal bovine serum (FBS; Corning), 100 U/mL penicillin and 100 μg/mL streptomycin in a humidified incubator at 37 °C and 5% CO2. The MDR, P-gp overexpressing A2780-ADR cell line was maintained under positive selection pressure by supplementing complete medium with 100 nM doxorubicin (Fisher Scientific, NJ). The non-cancerous HFL1 (human lung fibroblast) cell line cell line was a generous gift from Dr. Robert Harrod (Southern Methodist University, Dallas, TX) and was maintained in complete F12K media consisting of F12K with 10% fetal bovine serum, 100 U/mL penicillin, and 100 µg/mL streptomycin (Gibco). Flasks and 96 well plates that were used with the non-cancerous line HFL1 were pre-treated with 0.1 mg/ml Collagen Type 1 (Gibco) and rinsed with PBS (Fisher).
(§2) Culture of the DU145, DU145-TXR, and HFL1 cell lines was performed as described in [8]. Culture of the A2780 and A2780-ADR cell lines was performed as described in [9]. MTT assays were performed as described in [8] with minor modifications. LC-MS/MS accumulation assays were performed as described in {Nanayakkara, 2018 #173} [9] with some modifications. […] The inhibitor concentration was lowered to 15 µM here, as the goal of the study was to identify compounds that were effective in reversing MDR at low concentrations, and to determine if the expanded virtual-assisted methods improved on our first-draft attempt. Compounds 56–98 were pre-screened using Resazurin cell viability assays: cells were incubated with 15 µM compound with or without 500 nM PTX for 48 hours, after which cell survival was assessed similar to [39]. Data represent the mean of two separate experiments, with n = 3 samples per experiment (n = 6 total) (S4 Table). The top performing compounds from this initial screen were re-tested with MTT viability assays against DU145-TXR cells, as described below.
(§3) MTT assays measure the reduction of yellow, water soluble 3-(4,5-dimethylthiazol-2-yl)-2,5-diphenyltetrazolium bromide (MTT) to blue, insoluble formazan crystals by cellular reductase processes in living cells. Cells were trypsinized from monolayers and seeded in complete medium in 96 well plates. Cancerous cell lines (DU145, DU145-TXR, A2780, A2780-ADR) were seeded at 3,000 cells per well in complete RPMI medium. The non-cancerous HFL1 line was seeded at 4,000 cells per well in complete F12K medium, in collagen-treated plates (Collagen Type 1, Gibco). Cells were incubated with experimental compounds for 48 hours at 37 °C and 5% CO2 in a humidified incubator. At 48 hours, MTT was added (20 µL/well of 5 mg/mL MTT in PBS) to each well. After incubation for 4 hours, the media was removed, and the formazan crystals were dissolved in 100 µL DMSO per well. Plates containing the semi-adherent A2780 or A2780-ADR lines were spun at 1400 rpm for 3 minutes prior to aspiration of media, and the addition of DMSO. Plates were shaken for 10 minutes at 500 rpm on an Orbital shaker (LabDoctor from MidSci, St Louis, MO). The absorbance was measured at 570 nm using a Bio-Tek Cytation 5 (Bio-Tek, Winooski, VT). The measured absorbance value was correlated with the number of metabolically active cells in that well, corrected for absorbance of media. […]

[2] = system: DU145-TXR cells; assay: MTT viability assay, reversal of MDR (re-sensitization to paclitaxel) in P-gp overexpressing DU145-TXR cells; conditions: for % Survival, mean / % Survival: 15 µM compound + 500 nM PTX (Paclitaxel, Taxol); for % Survival, mean / % Survival / viability at 15 µM: DU145-TXR; for Re-sensitization of DU145-TXR cells to PTX (reversal of MDR): 15 µM compound with or without 500 nM PTX, 48 h, MTT, re-sensitization = 30% or greater decrease in cell viability; for viability at 15 µM: Homo sapiens, 15 µM Compound Alone
How it was run: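 MTT viability testing was done on P-gp overexpressing, multidrug resistant DU145-TXR human prostate cancer cells. They were kept in 10 nM paclitaxel and seeded at 3,000 cells per well in complete RPMI. Cells were exposed to compound, with or without paclitaxel, for 48 hours. MTT was then added for 4 hours, formazan was dissolved in DMSO, and absorbance was read at 570 nm. Survival was expressed relative to control-treated cells.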

[3] = system: A2780 cells; assay: MTT viability assay, parental A2780 cells, with or without PTX; conditions: for Increase of PTX toxicity against parental A2780 cells: 15 µM compound with or without 500 nM PTX, 48 h, MTT; for Mean % Survival / % Survival (individual sample): A2780 cells; for Mean % Survival / viability at 15 µM: mean of 8 or 12 samples; for % Survival (individual sample): single samples; for viability at 15 µM: Homo sapiens, A2780, A2780 cells, read-out: Mean % Survival
Experimental: as §1, §2, §3

[4] = 15 µM compound + 500 nM PTX, mean of 12 samples
[5] = 15 µM compound + 500 nM PTX, single samples (trials 1-3, samples 1-4)
[6] = 15 µM compound alone, single samples (trials 1-3, samples 1-4)
[7] = 15 µM compound alone, mean of 12 samples, read-out: Mean % Survival
[8] = mean of 8 samples, read-out: % Survival, mean
[9] = trial 1, sample 1, read-out: % Survival
[10] = trial 1, sample 2, read-out: % Survival
[11] = trial 1, sample 3, read-out: % Survival
[12] = trial 1, sample 4, read-out: % Survival
[13] = trial 2, sample 1, read-out: % Survival
[14] = trial 2, sample 2, read-out: % Survival
[15] = trial 2, sample 3, read-out: % Survival
[16] = trial 2, sample 4, read-out: % Survival

## O=C(c1nc(-c2ccc3cc[nH]c3c2)no1)N1CCN(c2nsc3ccccc23)CC1 [Compound 70, O=C(N1CCN(CC1)c1nsc2ccccc12)c1nc(no1)-c1ccc2cc[nH]c2c1]
[1]
  Reversal of MDR in A2780-ADR cells: reversed MDR in A2780-ADR cells
[1]; [4]
  Mean % Survival: 62.6%
[1]; [5]
  % Survival (individual sample): 62% and 59% and 61%
[1]; [6]
  % Survival (individual sample): 116%
[1]; [7]
  viability at 15 µM: 114%
[2]; mean of 8 samples
  % Survival, mean: 47.0%
[2]; trial 1, sample 1
  % Survival: 51%
[2]; trial 1, sample 2
  % Survival: 55%
[2]; trial 1, sample 3
  % Survival: 50%
[2]; trial 1, sample 4
  % Survival: 54%
[2]; trial 2, sample 1
  % Survival: 41%
[2]; trial 2, sample 2
  % Survival: 36%
[2]; trial 2, sample 3
  % Survival: 46%
[2]; trial 2, sample 4
  % Survival: 43%
[2]
  Re-sensitization of DU145-TXR cells to PTX (reversal of MDR): re-sensitized DU145-TXR cells to PTX
[2]; [8]
  viability at 15 µM: 91.3%
[2]; [9]
  viability at 15 µM: 92%
[2]; [10]
  viability at 15 µM: 103%
[2]; [11]
  viability at 15 µM: 101%
[2]; [12]
  viability at 15 µM: 96%
[2]; [13]
  viability at 15 µM: 90%
[2]; [14]
  viability at 15 µM: 83%
[2]; [15]
  viability at 15 µM: 85%
[2]; [16]
  viability at 15 µM: 80%
[3]
  Increase of PTX toxicity against parental A2780 cells: did not greatly increase the toxicity of PTX against the parental A2780 cells
[3]; 15 µM compound + 500 nM PTX
  Mean % Survival: 22.6%
  % Survival (individual sample): 14%
[3]; 15 µM compound alone
  % Survival (individual sample): 88%
  viability at 15 µM: 89.4%

## Cc1ccc(-c2noc(-c3cn(Cc4ccc(NS(=O)(=O)c5ccccc5F)cc4)cn3)n2)cc1 [Compound 103, Cc1ccc(cc1)-c1noc(n1)-c1cn(Cc2ccc(NS(=O)(=O)c3ccccc3F)cc2)cn1]
[1]
  Reversal of MDR in A2780-ADR cells: reversed MDR in A2780-ADR cells
[1]; [4]
  Mean % Survival: 44.4%
[1]; [6]
  % Survival (individual sample): 69%
[1]; [7]
  viability at 15 µM: 70.4%
[1]; 15 µM compound alone, single samples (trials 1-3, samples 1-4), read-out: % Survival (individual sample)
  viability at 15 µM: 67%
[2]; mean of 8 samples
  % Survival, mean: 19.9%
[2]; trial 1, sample 1
  % Survival: 11%
[2]; trial 1, sample 2
  % Survival: 11%
[2]; trial 1, sample 3
  % Survival: 11%
[2]; trial 1, sample 4
  % Survival: 14%
[2]; trial 2, sample 1
  % Survival: 32%
[2]; trial 2, sample 2
  % Survival: 27%
[2]; trial 2, sample 3
  % Survival: 27%
[2]; trial 2, sample 4
  % Survival: 28%
[2]
  Re-sensitization of DU145-TXR cells to PTX (reversal of MDR): re-sensitized DU145-TXR cells to PTX
[2]; [8]
  viability at 15 µM: 76.4%
[2]; [9]
  viability at 15 µM: 58%
[2]; [10]
  viability at 15 µM: 50%
[2]; [11]
  viability at 15 µM: 48%
[2]; [12]
  viability at 15 µM: 52%
[2]; [13]
  viability at 15 µM: 108%
[2]; [14]
  viability at 15 µM: 104%
[2]; [15]
  viability at 15 µM: 94%
[2]; [16]
  viability at 15 µM: 96%
[3]
  Increase of PTX toxicity against parental A2780 cells: did not greatly increase the toxicity of PTX against the parental A2780 cells
[3]; 15 µM compound + 500 nM PTX
  Mean % Survival: 13.6%
  % Survival (individual sample): 10% and 18% and 19%
[3]; 15 µM compound alone
  % Survival (individual sample): 63%
  viability at 15 µM: 52.9%

## O=S(=O)(Cc1nc2ccccc2n1CC(O)c1ccc(Cl)cc1)c1ccccc1 (stereo not shown) [Compound 97, OC(Cn1c(CS(=O)(=O)c2ccccc2)nc2ccccc12)c1ccc(Cl)cc1]
[1]
  Reversal of MDR in A2780-ADR cells: reversed MDR in A2780-ADR cells
[1]; [4]
  Mean % Survival: 44.3%
[1]; [5]
  % Survival (individual sample): 47% and 29%
[1]; [7]
  viability at 15 µM: 92.5%
[2]; mean of 8 samples
  % Survival, mean: 34.9%
[2]; trial 1, sample 1
  % Survival: 26%
[2]; trial 1, sample 2
  % Survival: 30%
[2]; trial 1, sample 3
  % Survival: 24%
[2]; trial 1, sample 4
  % Survival: 42%
[2]; trial 2, sample 1
  % Survival: 44%
[2]; trial 2, sample 2
  % Survival: 41%
[2]; trial 2, sample 3
  % Survival: 30%
[2]; trial 2, sample 4
  % Survival: 42%
[2]
  Re-sensitization of DU145-TXR cells to PTX (reversal of MDR): re-sensitized DU145-TXR cells to PTX
[2]; [8]
  viability at 15 µM: 87.2%
[2]; [9]
  viability at 15 µM: 107%
[2]; [10]
  viability at 15 µM: 82%
[2]; [11]
  viability at 15 µM: 82%
[2]; [12]
  viability at 15 µM: 83%
[2]; [13]
  viability at 15 µM: 77%
[2]; [14]
  viability at 15 µM: 89%
[2]; [15]
  viability at 15 µM: 88%
[2]; [16]
  viability at 15 µM: 90%
[3]
  Increase of PTX toxicity against parental A2780 cells: did not greatly increase the toxicity of PTX against the parental A2780 cells
[3]; 15 µM compound + 500 nM PTX
  Mean % Survival: 13.0%
  % Survival (individual sample): 8% and 19%
[3]; 15 µM compound alone
  viability at 15 µM: 89.8%
